The numbers were not newly measured in patent US20140370086A1, “SUBLINGUAL IMMUNOTHERAPY WITH REDUCED ORAL ITCHINESS” (priority 2013, published 2014), which cites them from elsewhere.

SMILES strings stand for the structures.

For the series the following is noted: at high doses.

Turning to `O=C(O)c1cc(=O)c2c(OCC(O)COc3cccc4oc(C(=O)O)cc(=O)c34)cccc2o1` [Cromolyn, Cromolyn sodium (cromoglicic acid)], the toxicity result was “no toxicity at high doses”.
